These results are taken from ChEMBL document CHEMBL5303763, “Data for DCP probe BI-3802” (2023).

Series [1] addresses Phosphatidylinositol 4,5-bisphosphate 3-kinase catalytic subunit gamma isoform (Homo sapiens) (UniProt P48736). Description: PIK3CG Invitrogen Lab (UK) kinase screen (BI). The note with it: Compound concentration 1.0 uM.
For series [2], the target named is Mitogen-activated protein kinase 14 (Homo sapiens) (UniProt Q16539). As to the kind of experiment: MAPK14 Invitrogen Lab (UK) kinase screen (BI). The note with it: Compound concentration 1.0 uM.
The target of series [3] is Epidermal growth factor receptor (Homo sapiens) (UniProt P00533). As to the kind of experiment: EGFR Invitrogen Lab (UK) kinase screen (BI). Conditions: Compound concentration 1.0 uM; call rule not given here.
Chain of Epidermal growth factor receptor (Homo sapiens) (P00533 whole entry): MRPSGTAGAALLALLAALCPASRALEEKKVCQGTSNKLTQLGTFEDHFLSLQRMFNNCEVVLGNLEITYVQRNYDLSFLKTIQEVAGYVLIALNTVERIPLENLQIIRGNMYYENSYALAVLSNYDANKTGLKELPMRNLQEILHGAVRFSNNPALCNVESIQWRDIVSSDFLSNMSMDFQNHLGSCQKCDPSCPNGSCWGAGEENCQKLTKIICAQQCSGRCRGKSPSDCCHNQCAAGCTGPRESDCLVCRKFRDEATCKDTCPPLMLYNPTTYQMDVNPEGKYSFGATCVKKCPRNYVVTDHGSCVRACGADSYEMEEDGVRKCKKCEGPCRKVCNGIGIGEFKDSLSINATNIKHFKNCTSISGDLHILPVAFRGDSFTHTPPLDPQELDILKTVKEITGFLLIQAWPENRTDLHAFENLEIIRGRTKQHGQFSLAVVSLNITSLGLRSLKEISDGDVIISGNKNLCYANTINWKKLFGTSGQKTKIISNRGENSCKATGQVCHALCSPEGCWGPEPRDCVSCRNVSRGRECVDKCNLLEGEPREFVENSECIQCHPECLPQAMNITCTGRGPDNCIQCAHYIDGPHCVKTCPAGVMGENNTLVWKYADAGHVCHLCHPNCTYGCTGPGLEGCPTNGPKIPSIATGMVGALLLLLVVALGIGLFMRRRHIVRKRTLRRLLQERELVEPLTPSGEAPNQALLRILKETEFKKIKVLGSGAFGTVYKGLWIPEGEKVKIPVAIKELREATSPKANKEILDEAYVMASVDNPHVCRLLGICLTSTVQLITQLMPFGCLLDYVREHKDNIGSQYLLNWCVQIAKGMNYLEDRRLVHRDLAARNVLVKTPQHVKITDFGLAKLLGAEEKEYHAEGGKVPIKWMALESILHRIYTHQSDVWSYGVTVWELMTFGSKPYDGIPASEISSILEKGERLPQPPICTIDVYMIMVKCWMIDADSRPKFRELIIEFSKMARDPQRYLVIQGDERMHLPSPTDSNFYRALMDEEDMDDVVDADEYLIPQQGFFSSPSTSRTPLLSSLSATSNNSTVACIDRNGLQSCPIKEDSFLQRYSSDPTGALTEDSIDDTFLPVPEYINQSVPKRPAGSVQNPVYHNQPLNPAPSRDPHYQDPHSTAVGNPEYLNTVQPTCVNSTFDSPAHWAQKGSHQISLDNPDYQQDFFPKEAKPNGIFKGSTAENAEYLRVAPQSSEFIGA
Series [4] has as its target Sigma intracellular receptor 2 (Homo sapiens) (UniProt Q5BJF2). The note with it: Compound concentration 10.0 uM.
Series [5] addresses Rho-associated protein kinase 2 (Homo sapiens) (UniProt O75116). Description: ROCK2 Invitrogen Lab (UK) kinase screen (BI). The note with it: Compound concentration 1.0 uM.
In series [6] the target is Casein kinase I isoform alpha (Homo sapiens) (UniProt P48729). As to the kind of experiment: CSNK1A1 Invitrogen Lab (UK) kinase screen (BI). Conditions: Compound concentration 1.0 uM.
The target of series [7] is Tyrosine-protein kinase ITK/TSK (Homo sapiens) (UniProt Q08881). Description: ITK Invitrogen Lab (UK) kinase screen (BI). Conditions: Compound concentration 1.0 uM.
Series [8] addresses Ephrin type-A receptor 2 (Homo sapiens) (UniProt P29317). Description: EPHA2 Invitrogen Lab (UK) kinase screen (BI). Conditions: Compound concentration 1.0 uM.
The target of series [9] is 3-phosphoinositide-dependent protein kinase 1 (Homo sapiens) (UniProt O15530). As to the kind of experiment: PDK1 Invitrogen Lab (UK) kinase screen (BI). Conditions: Compound concentration 1.0 uM.
Series [10] concerns the target 5-hydroxytryptamine receptor 2B (Homo sapiens) (UniProt P41595). The note with it: Compound concentration 10.0 uM.
The target of series [11] is Alpha-1B adrenergic receptor (Homo sapiens) (UniProt P35368). Conditions: Compound concentration 10.0 uM.
Chain of Alpha-1B adrenergic receptor (Homo sapiens) (P35368 whole entry): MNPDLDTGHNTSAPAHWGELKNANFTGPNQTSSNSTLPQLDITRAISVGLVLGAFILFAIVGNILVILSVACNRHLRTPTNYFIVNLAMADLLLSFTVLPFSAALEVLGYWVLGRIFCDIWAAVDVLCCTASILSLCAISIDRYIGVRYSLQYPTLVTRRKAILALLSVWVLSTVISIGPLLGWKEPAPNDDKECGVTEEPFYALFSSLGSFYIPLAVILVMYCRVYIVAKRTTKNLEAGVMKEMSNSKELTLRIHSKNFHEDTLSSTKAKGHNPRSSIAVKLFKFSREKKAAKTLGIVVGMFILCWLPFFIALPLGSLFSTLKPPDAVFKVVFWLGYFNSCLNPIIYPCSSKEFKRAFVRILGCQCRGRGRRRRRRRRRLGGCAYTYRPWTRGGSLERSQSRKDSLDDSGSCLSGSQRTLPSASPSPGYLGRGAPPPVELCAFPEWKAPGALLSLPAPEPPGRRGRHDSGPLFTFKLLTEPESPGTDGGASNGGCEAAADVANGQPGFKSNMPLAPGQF
The target in series [12] is Glycogen synthase kinase-3 beta (Homo sapiens) (UniProt P49841). As to the kind of experiment: GSK3B Invitrogen Lab (UK) kinase screen (BI). The note with it: Compound concentration 1.0 uM.
Series [13] addresses MAP kinase-activated protein kinase 3 (Homo sapiens) (UniProt Q16644). As to the kind of experiment: MAPKAPK3 Invitrogen Lab (UK) kinase screen (BI). Conditions: Compound concentration 1.0 uM.
Series [14] deals with 5-hydroxytryptamine receptor 7 (Homo sapiens) (UniProt P34969). Conditions: Compound concentration 10.0 uM.
Chain of 5-hydroxytryptamine receptor 7 (Homo sapiens) (P34969 whole entry): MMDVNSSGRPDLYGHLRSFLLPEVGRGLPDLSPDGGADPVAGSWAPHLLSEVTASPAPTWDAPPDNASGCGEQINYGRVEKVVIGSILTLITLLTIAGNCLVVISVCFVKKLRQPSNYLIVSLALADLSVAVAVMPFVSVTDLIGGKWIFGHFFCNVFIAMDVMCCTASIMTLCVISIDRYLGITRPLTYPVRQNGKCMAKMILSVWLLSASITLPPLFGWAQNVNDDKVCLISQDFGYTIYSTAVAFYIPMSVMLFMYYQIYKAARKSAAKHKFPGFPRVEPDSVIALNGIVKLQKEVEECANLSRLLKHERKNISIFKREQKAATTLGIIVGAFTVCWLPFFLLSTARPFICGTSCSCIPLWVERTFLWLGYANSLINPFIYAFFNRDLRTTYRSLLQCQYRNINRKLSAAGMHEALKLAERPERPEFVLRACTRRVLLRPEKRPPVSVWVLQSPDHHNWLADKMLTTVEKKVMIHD
For series [15], the system named is Voltage-gated K+ channel Kv1 (Rattus norvegicus). Description: K+/VOLT/RA Eurofins SafetyScreen44 (BI). The note with it: rat brain, probe [125I]a-dendrotoxin, read-out: % Ctrl.
Series [16] has as its target 5-hydroxytryptamine receptor 1B (Homo sapiens) (UniProt P28222). Description: 5HT1B(H) Eurofins SafetyScreen44 (BI). The note with it: filed as antagonist, Compound concentration 10.0 uM.

Chain of 5-hydroxytryptamine receptor 2B (Homo sapiens) (P41595 whole entry): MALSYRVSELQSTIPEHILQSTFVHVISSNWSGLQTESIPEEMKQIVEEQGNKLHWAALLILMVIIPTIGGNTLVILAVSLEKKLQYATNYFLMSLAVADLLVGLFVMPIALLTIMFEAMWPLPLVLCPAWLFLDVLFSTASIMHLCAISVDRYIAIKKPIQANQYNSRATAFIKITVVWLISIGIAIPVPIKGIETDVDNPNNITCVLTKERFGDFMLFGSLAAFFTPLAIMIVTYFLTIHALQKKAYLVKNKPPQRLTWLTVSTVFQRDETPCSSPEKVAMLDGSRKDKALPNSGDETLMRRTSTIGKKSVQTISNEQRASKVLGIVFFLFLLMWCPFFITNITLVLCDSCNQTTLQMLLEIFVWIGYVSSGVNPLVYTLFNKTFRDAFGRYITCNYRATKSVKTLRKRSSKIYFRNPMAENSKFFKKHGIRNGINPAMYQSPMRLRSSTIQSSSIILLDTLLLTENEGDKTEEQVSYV
Chain of Sigma intracellular receptor 2 (Homo sapiens) (Q5BJF2 whole entry): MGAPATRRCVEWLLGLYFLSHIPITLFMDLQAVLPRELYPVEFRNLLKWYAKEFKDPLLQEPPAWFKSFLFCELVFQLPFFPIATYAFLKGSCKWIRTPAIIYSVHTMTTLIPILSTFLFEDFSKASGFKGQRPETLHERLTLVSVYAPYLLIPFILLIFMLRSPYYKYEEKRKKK
Chain of MAP kinase-activated protein kinase 3 (Homo sapiens) (Q16644 whole entry, looked up): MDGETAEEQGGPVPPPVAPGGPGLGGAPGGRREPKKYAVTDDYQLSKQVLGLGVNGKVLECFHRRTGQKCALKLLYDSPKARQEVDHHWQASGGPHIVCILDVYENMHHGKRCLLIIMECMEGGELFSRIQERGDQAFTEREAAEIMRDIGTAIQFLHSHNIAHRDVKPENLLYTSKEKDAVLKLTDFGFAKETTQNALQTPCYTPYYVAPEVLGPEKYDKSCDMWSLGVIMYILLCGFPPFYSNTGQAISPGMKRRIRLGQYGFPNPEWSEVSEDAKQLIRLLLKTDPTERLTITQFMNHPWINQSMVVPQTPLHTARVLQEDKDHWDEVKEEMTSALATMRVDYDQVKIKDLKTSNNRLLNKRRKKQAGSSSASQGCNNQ
Chain of 5-hydroxytryptamine receptor 1B (Homo sapiens) (P28222 whole entry): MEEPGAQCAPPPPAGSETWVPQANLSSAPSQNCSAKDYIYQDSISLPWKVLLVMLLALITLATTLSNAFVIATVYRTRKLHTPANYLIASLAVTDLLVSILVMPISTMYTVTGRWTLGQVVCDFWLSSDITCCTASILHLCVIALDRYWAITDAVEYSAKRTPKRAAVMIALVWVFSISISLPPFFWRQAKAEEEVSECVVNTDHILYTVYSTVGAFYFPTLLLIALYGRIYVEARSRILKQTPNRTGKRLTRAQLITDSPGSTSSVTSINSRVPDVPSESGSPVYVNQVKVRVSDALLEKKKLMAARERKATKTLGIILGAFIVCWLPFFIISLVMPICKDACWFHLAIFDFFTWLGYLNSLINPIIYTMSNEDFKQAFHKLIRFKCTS
Chain of Phosphatidylinositol 4,5-bisphosphate 3-kinase catalytic subunit gamma isoform (Homo sapiens) (P48736 whole entry, looked up, canonical isoform): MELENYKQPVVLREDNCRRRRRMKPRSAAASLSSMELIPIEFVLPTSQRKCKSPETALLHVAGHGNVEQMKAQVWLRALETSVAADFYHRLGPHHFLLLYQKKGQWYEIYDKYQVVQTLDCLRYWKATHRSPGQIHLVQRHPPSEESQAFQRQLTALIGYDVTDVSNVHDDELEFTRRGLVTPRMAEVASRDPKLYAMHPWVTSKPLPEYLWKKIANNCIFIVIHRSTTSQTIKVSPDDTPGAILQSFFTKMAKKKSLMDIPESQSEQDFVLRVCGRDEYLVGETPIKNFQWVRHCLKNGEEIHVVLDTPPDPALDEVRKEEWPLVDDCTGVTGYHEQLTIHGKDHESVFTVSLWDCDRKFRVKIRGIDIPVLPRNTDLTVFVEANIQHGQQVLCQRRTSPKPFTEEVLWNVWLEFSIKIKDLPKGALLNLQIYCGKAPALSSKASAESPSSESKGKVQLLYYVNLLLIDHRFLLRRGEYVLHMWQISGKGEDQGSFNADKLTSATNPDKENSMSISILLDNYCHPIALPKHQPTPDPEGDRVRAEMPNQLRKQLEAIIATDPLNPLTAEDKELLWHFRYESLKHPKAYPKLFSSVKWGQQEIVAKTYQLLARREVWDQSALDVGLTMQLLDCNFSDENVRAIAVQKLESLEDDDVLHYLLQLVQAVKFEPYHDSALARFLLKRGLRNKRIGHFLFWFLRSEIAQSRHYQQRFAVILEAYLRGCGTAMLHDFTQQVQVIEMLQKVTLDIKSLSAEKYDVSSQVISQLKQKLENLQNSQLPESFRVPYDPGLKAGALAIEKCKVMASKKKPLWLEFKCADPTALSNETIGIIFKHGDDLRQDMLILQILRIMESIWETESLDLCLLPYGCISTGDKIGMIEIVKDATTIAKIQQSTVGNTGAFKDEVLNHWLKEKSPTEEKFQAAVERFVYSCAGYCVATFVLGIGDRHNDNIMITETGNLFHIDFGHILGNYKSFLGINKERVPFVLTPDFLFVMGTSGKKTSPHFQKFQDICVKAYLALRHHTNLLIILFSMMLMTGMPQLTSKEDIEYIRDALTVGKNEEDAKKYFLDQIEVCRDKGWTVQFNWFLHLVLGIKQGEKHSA

As a reminder, the inhibition is the change of the read-out against control, counted positive when it falls. For the molecule `CNC(=O)COc1cc2cc(Nc3nc(N4C[C@H](C)C[C@H](C)C4)ncc3Cl)ccc2n(C)c1=O`, the residual activity in series [1] is 95%; in series [2] it was 100%; in series [3] it was 88%; in series [5], 100%; in series [6], 93%; in [7] it was 100%. Moreover, the residual activity in series [8] is 97%; in series [9], 98%; in [12], 93%; in [13] it was 97%. For the same molecule, the inhibition in series [4] is 17.1%; in [10], -5.25%; in [11], -0.36%; in [14], 15.5%.

Consider `C[C@@H]1C[C@H](C)CN(c2ncc(Cl)c(Nc3ccc4c(c3)cc(OC(C)(C)C(=O)O)c(=O)n4C)n2)C1`, for which, in [15], the activity at 10 µM is given as 97% (not active). The residual activity in [16] was 95%.
